Test results: patent publication US20250352520A1, “USE OF DEXPRAMIPEXOLE FOR THE TREATMENT OF EOSINOPHILIC COPD” (Areteia Therapeutics, Inc., priority 2024, published 2025)
Like-named read-outs stand apart in the source and are kept apart here.

Settings: Week 4

## CCCN[C@@H]1CCc2nc(N)sc2C1 [Dexpramipexole, (6R)-2-amino-4,5,6,7-tetrahydro-6-(propylamino)benzothiazole]
<50% AEC reduction at Week 16
  Pre-BD FEF25-75 % change from baseline, Max: −9%
  Pre-BD FEF25-75 % change from baseline, Mean ± SD: −19.8 ± 9.58%
  Pre-BD FEF25-75 % change from baseline, Median: −19.3%
  Pre-BD FEF25-75 % change from baseline, Min: −32%
  Pre-BD FEF25-75 % change from baseline, Q1: −27%
  Pre-BD FEF25-75 % change from baseline, Q3: −13%
  Pre-BD FEF25-75 Observed, Max: 950 mL/s
  Pre-BD FEF25-75 Observed, Mean ± SD: 507.5 ± 333.30 mL/s
  Pre-BD FEF25-75 Observed, Median: 440.0 mL/s
  Pre-BD FEF25-75 Observed, Min: 200 mL/s
  Pre-BD FEF25-75 Observed, Q1: 255 mL/s
  Pre-BD FEF25-75 Observed, Q3: 760 mL/s
  Pre-BD FEF25-75 change from baseline, Max: -30 mL/s
  Pre-BD FEF25-75 change from baseline, Mean ± SD: -167.5 ± 191.03 mL/s
  Pre-BD FEF25-75 change from baseline, Median: -100.0 mL/s
  Pre-BD FEF25-75 change from baseline, Min: -440 mL/s
  Pre-BD FEF25-75 change from baseline, Q1: -300 mL/s
  Pre-BD FEF25-75 change from baseline, Q3: -35 mL/s
  Pre-BD FEV1 % change from baseline, Max: −1%
  Pre-BD FEV1 % change from baseline, Mean ± SD: −16.4 ± 15.81%
  Pre-BD FEV1 % change from baseline, Median: −13.3%
  Pre-BD FEV1 % change from baseline, Min: −37%
  Pre-BD FEV1 % change from baseline, Q1: −28%
  Pre-BD FEV1 % change from baseline, Q3: −4%
  Pre-BD FEV1 Observed, Max: 1680 mL
  Pre-BD FEV1 Observed, Mean ± SD: 1260.0 ± 511.53 mL
  Pre-BD FEV1 Observed, Median: 1420.0 mL
  Pre-BD FEV1 Observed, Min: 520 mL
  Pre-BD FEV1 Observed, Q1: 935 mL
  Pre-BD FEV1 Observed, Q3: 1585 mL
  Pre-BD FEV1 change from baseline, Max: -20 mL
  Pre-BD FEV1 change from baseline, Mean ± SD: -212.5 ± 173.47 mL
  Pre-BD FEV1 change from baseline, Median: -215.0 mL
  Pre-BD FEV1 change from baseline, Min: -400 mL
  Pre-BD FEV1 change from baseline, Q1: -355 mL
  Pre-BD FEV1 change from baseline, Q3: -70 mL
  Pre-BD FVC % change from baseline, Max: 0%
  Pre-BD FVC % change from baseline, Mean ± SD: −9.0 ± 13.97%
  Pre-BD FVC % change from baseline, Median: −2.9%
  Pre-BD FVC % change from baseline, Min: −30%
  Pre-BD FVC % change from baseline, Q1: −17%
  Pre-BD FVC % change from baseline, Q3: −1%
  Pre-BD FVC Observed, Max: 3480 mL
  Pre-BD FVC Observed, Mean ± SD: 2755.0 ± 729.41 mL
  Pre-BD FVC Observed, Median: 2875.0 mL
  Pre-BD FVC Observed, Min: 1790 mL
  Pre-BD FVC Observed, Q1: 2215 mL
  Pre-BD FVC Observed, Q3: 3295 mL
  Pre-BD FVC change from baseline, Max: -10 mL
  Pre-BD FVC change from baseline, Mean ± SD: -240.0 ± 350.90 mL
  Pre-BD FVC change from baseline, Median: -95.0 mL
  Pre-BD FVC change from baseline, Min: -760 mL
  Pre-BD FVC change from baseline, Q1: -450 mL
  Pre-BD FVC change from baseline, Q3: -30 mL
  Pre-BD Peak Flow % change from baseline, Max: 428%
  Pre-BD Peak Flow % change from baseline, Mean ± SD: 90.4 ± 224.72%
  Pre-BD Peak Flow % change from baseline, Median: −20.4%
  Pre-BD Peak Flow % change from baseline, Min: −25%
  Pre-BD Peak Flow % change from baseline, Q1: −24%
  Pre-BD Peak Flow % change from baseline, Q3: 205%
  Pre-BD Peak Flow Observed, Max: 211 L/min
  Pre-BD Peak Flow Observed, Mean ± SD: 167.5 ± 49.57 L/min
  Pre-BD Peak Flow Observed, Median: 180.5 L/min
  Pre-BD Peak Flow Observed, Min: 98 L/min
  Pre-BD Peak Flow Observed, Q1: 133 L/min
  Pre-BD Peak Flow Observed, Q3: 202 L/min
  Pre-BD Peak Flow change from baseline, Max: 171 L/min
  Pre-BD Peak Flow change from baseline, Mean ± SD: 11.0 ± 107.23 L/min
  Pre-BD Peak Flow change from baseline, Median: -35.5 L/min
  Pre-BD Peak Flow change from baseline, Min: -56 L/min
  Pre-BD Peak Flow change from baseline, Q1: -49 L/min
  Pre-BD Peak Flow change from baseline, Q3: 71 L/min
>=50% AEC reduction at Week 16
  Pre-BD FEF25-75 % change from baseline, Max: 41%
  Pre-BD FEF25-75 % change from baseline, Mean ± SD: 11.4 ± 25.76%
  Pre-BD FEF25-75 % change from baseline, Median: −2.2%
  Pre-BD FEF25-75 % change from baseline, Min: −5%
  Pre-BD FEF25-75 % change from baseline, Q1: −5%
  Pre-BD FEF25-75 % change from baseline, Q3: 41%
  Pre-BD FEF25-75 Observed, Max: 1030 mL/s
  Pre-BD FEF25-75 Observed, Mean ± SD: 710.0 ± 446.43 mL/s
  Pre-BD FEF25-75 Observed, Median: 900.0 mL/s
  Pre-BD FEF25-75 Observed, Min: 200 mL/s
  Pre-BD FEF25-75 Observed, Q1: 200 mL/s
  Pre-BD FEF25-75 Observed, Q3: 1030 mL/s
  Pre-BD FEF25-75 change from baseline, Max: 300 mL/s
  Pre-BD FEF25-75 change from baseline, Mean ± SD: 90.0 ± 181.93 mL/s
  Pre-BD FEF25-75 change from baseline, Median: -10.0 mL/s
  Pre-BD FEF25-75 change from baseline, Min: -20 mL/s
  Pre-BD FEF25-75 change from baseline, Q1: -20 mL/s
  Pre-BD FEF25-75 change from baseline, Q3: 300 mL/s
  Pre-BD FEV1 % change from baseline, Max: 62%
  Pre-BD FEV1 % change from baseline, Mean ± SD: 24.8 ± 32.69%
  Pre-BD FEV1 % change from baseline, Median: 9.7%
  Pre-BD FEV1 % change from baseline, Min: 2%
  Pre-BD FEV1 % change from baseline, Q1: 2%
  Pre-BD FEV1 % change from baseline, Q3: 62%
  Pre-BD FEV1 Observed, Max: 2110 mL
  Pre-BD FEV1 Observed, Mean ± SD: 1540.0 ± 678.16 mL
  Pre-BD FEV1 Observed, Median: 1720.0 mL
  Pre-BD FEV1 Observed, Min: 790 mL
  Pre-BD FEV1 Observed, Q1: 790 mL
  Pre-BD FEV1 Observed, Q3: 2110 mL
  Pre-BD FEV1 change from baseline, Max: 810 mL
  Pre-BD FEV1 change from baseline, Mean ± SD: 306.7 ± 436.16 mL
  Pre-BD FEV1 change from baseline, Median: 70.0 mL
  Pre-BD FEV1 change from baseline, Min: 40 mL
  Pre-BD FEV1 change from baseline, Q1: 40 mL
  Pre-BD FEV1 change from baseline, Q3: 810 mL
  Pre-BD FVC % change from baseline, Max: 32%
  Pre-BD FVC % change from baseline, Mean ± SD: 15.7 ± 14.81%
  Pre-BD FVC % change from baseline, Median: 11.4%
  Pre-BD FVC % change from baseline, Min: 3%
  Pre-BD FVC % change from baseline, Q1: 3%
  Pre-BD FVC % change from baseline, Q3: 32%
  Pre-BD FVC Observed, Max: 3330 mL
  Pre-BD FVC Observed, Mean ± SD: 2790.0 ± 497.59 mL
  Pre-BD FVC Observed, Median: 2690.0 mL
  Pre-BD FVC Observed, Min: 2350 mL
  Pre-BD FVC Observed, Q1: 2350 mL
  Pre-BD FVC Observed, Q3: 3330 mL
  Pre-BD FVC change from baseline, Max: 810 mL
  Pre-BD FVC change from baseline, Mean ± SD: 380.0 ± 379.87 mL
  Pre-BD FVC change from baseline, Median: 240.0 mL
  Pre-BD FVC change from baseline, Min: 90 mL
  Pre-BD FVC change from baseline, Q1: 90 mL
  Pre-BD FVC change from baseline, Q3: 810 mL
  Pre-BD Peak Flow % change from baseline, Max: 143%
  Pre-BD Peak Flow % change from baseline, Mean ± SD: 63.4 ± 69.42%
  Pre-BD Peak Flow % change from baseline, Median: 28.2%
  Pre-BD Peak Flow % change from baseline, Min: 18%
  Pre-BD Peak Flow % change from baseline, Q1: 18%
  Pre-BD Peak Flow % change from baseline, Q3: 143%
  Pre-BD Peak Flow Observed, Max: 382 L/min
  Pre-BD Peak Flow Observed, Mean ± SD: 260.7 ± 108.49 L/min
  Pre-BD Peak Flow Observed, Median: 227.0 L/min
  Pre-BD Peak Flow Observed, Min: 173 L/min
  Pre-BD Peak Flow Observed, Q1: 173 L/min
  Pre-BD Peak Flow Observed, Q3: 382 L/min
  Pre-BD Peak Flow change from baseline, Max: 225 L/min
  Pre-BD Peak Flow change from baseline, Mean ± SD: 100.7 ± 108.29 L/min
  Pre-BD Peak Flow change from baseline, Median: 50.0 L/min
  Pre-BD Peak Flow change from baseline, Min: 27 L/min
  Pre-BD Peak Flow change from baseline, Q1: 27 L/min
  Pre-BD Peak Flow change from baseline, Q3: 225 L/min
